Assay results: ChEMBL document CHEMBL3885881, “DrugMatrix”

Species on record: Rattus norvegicus
Experiment: DrugMatrix - Regimen: Daily Repeat
Type: toxicity, organism-based, Sprague-Dawley
Set-up: regimen Daily Repeat, gender Male, age 6-8 weeks
Conditions: in vivo, po, route oral GAVAGE, […]; for ABSOLUTE BASOPHIL / ABSOLUTE EOSINOPHIL / ABSOLUTE LYMPHOCYTE / ABSOLUTE MONOCYTE / ABSOLUTE SEGMENTED NEUTROPHIL / BASOPHIL / EOSINOPHIL / ERYTHROCYTE COUNT / HEMATOCRIT / HEMOGLOBIN / LEUKOCYTE COUNT / LYMPHOCYTE / MEAN CORPUSCULAR HEMOGLOBIN / MEAN CORPUSCULAR HEMOGLOBIN CONCENTRATION / MEAN CORPUSCULAR VOLUME / MONOCYTE / NEUTROPHIL / NUCLEATED RED BLOOD CELLS / PLATELET COUNT: tissue Blood; for ALANINE AMINOTRANSFERASE / ALBUMIN / ALKALINE PHOSPHATASE / ASPARTATE AMINOTRANSFERASE / BLOOD UREA NITROGEN / CARBON DIOXIDE / CHLORIDE / CHOLESTEROL / CREATINE PHOSPHOKINASE / CREATININE / GLUCOSE / LACTATE DEHYDROGENASE / LIPASE / PHOSPHORUS / POTASSIUM / SODIUM / TOTAL BILIRUBIN / TOTAL PROTEIN / URIC ACID: tissue Plasma
[1] = 0 mg/kg, 72 h, dose level Control, time 3 day
[2] = 0 mg/kg, 120 h, dose level Control, time 5 day
[3] = 15 mg/kg, 72 h, dose level Low, time 3 day
[4] = 15 mg/kg, 120 h, dose level Low, time 5 day

Compound: CC(C)C(=O)Nc1ccc([N+](=O)[O-])c(C(F)(F)F)c1 [FLUTAMIDE]
- ABSOLUTE BASOPHIL [1]: 0 CELLS/uL
- ABSOLUTE EOSINOPHIL [1]: 13.67 CELLS/uL
- ABSOLUTE LYMPHOCYTE [1]: 10069.5 CELLS/uL
- ABSOLUTE MONOCYTE [1]: 50 CELLS/uL
- ABSOLUTE SEGMENTED NEUTROPHIL [1]: 516.83 CELLS/uL
- BASOPHIL [1]: 0%
- EOSINOPHIL [1]: 0.17%
- ERYTHROCYTE COUNT [1]: 5.44 x10E6/uL
- HEMATOCRIT [1]: 33.88%
- HEMOGLOBIN [1]: 13.23 G/DL
- LEUKOCYTE COUNT [1]: 10.65 x10E3/uL
- LYMPHOCYTE [1]: 94.67%
- MEAN CORPUSCULAR HEMOGLOBIN [1]: 24.37 pg
- MEAN CORPUSCULAR HEMOGLOBIN CONCENTRATION [1]: 39.05 G/DL
- MEAN CORPUSCULAR VOLUME [1]: 62.38 fL
- MONOCYTE [1]: 0.67%
- NEUTROPHIL [1]: 4.5%
- NUCLEATED RED BLOOD CELLS [1]: 0.33 /100WBC
- PLATELET COUNT [1]: 414.5 x10E3/uL
- ALANINE AMINOTRANSFERASE [1]: 72 u/L
- ALBUMIN [1]: 3.75 G/DL
- ALKALINE PHOSPHATASE [1]: 375 u/L
- ASPARTATE AMINOTRANSFERASE [1]: 87.5 u/L
- BLOOD UREA NITROGEN [1]: 14 mg/dL
- CARBON DIOXIDE [1]: 27.5 mmol/L
- CHLORIDE [1]: 95.83 MEQ/L
- CHOLESTEROL [1]: 68.5 mg/dL
- CREATINE PHOSPHOKINASE [1]: 284.33 u/L
- CREATININE [1]: 0.16 mg/dL
- GLUCOSE [1]: 156.67 mg/dL
- LACTATE DEHYDROGENASE [1]: 101.83 u/L
- LIPASE [1]: 9.67 u/L
- PHOSPHORUS [1]: 10.33 mg/dL
- POTASSIUM [1]: 5.22 MEQ/L
- SODIUM [1]: 137.67 MEQ/L
- TOTAL BILIRUBIN [1]: 0.13 mg/dL
- TOTAL PROTEIN [1]: 5.43 G/DL
- URIC ACID [1]: 0.8 mg/dL
- ABSOLUTE BASOPHIL [2]: 0 CELLS/uL
- ABSOLUTE EOSINOPHIL [2]: 20.67 CELLS/uL
- ABSOLUTE LYMPHOCYTE [2]: 11518.33 CELLS/uL
- ABSOLUTE MONOCYTE [2]: 47 CELLS/uL
- ABSOLUTE SEGMENTED NEUTROPHIL [2]: 614 CELLS/uL
- BASOPHIL [2]: 0%
- EOSINOPHIL [2]: 0.17%
- ERYTHROCYTE COUNT [2]: 5.61 x10E6/uL
- HEMATOCRIT [2]: 34.25%
- HEMOGLOBIN [2]: 13.38 G/DL
- LEUKOCYTE COUNT [2]: 12.2 x10E3/uL
- LYMPHOCYTE [2]: 94.33%
- MEAN CORPUSCULAR HEMOGLOBIN [2]: 23.83 pg
- MEAN CORPUSCULAR HEMOGLOBIN CONCENTRATION [2]: 39.08 G/DL
- MEAN CORPUSCULAR VOLUME [2]: 61.03 fL
- MONOCYTE [2]: 0.33%
- NEUTROPHIL [2]: 5.17%
- NUCLEATED RED BLOOD CELLS [2]: 0 /100WBC
- PLATELET COUNT [2]: 941.83 x10E3/uL
- ALANINE AMINOTRANSFERASE [2]: 68.83 u/L
- ALBUMIN [2]: 4.12 G/DL
- ALKALINE PHOSPHATASE [2]: 492.67 u/L
- ASPARTATE AMINOTRANSFERASE [2]: 83.33 u/L
- BLOOD UREA NITROGEN [2]: 14 mg/dL
- CARBON DIOXIDE [2]: 37 mmol/L
- CHLORIDE [2]: 98.67 MEQ/L
- CHOLESTEROL [2]: 56.5 mg/dL
- CREATINE PHOSPHOKINASE [2]: 167.33 u/L
- CREATININE [2]: 0.17 mg/dL
- GLUCOSE [2]: 157.5 mg/dL
- LACTATE DEHYDROGENASE [2]: 104.83 u/L
- LIPASE [2]: 10 u/L
- PHOSPHORUS [2]: 10.43 mg/dL
- POTASSIUM [2]: 5.46 MEQ/L
- SODIUM [2]: 143.87 MEQ/L
- TOTAL BILIRUBIN [2]: 0.17 mg/dL
- TOTAL PROTEIN [2]: 5.72 G/DL
- URIC ACID [2]: 0.85 mg/dL
- ABSOLUTE BASOPHIL [3]: 0 CELLS/uL
- ABSOLUTE EOSINOPHIL [3]: 10.67 CELLS/uL
- ABSOLUTE LYMPHOCYTE [3]: 6470.33 CELLS/uL
- ABSOLUTE MONOCYTE [3]: 86 CELLS/uL
- ABSOLUTE SEGMENTED NEUTROPHIL [3]: 599.67 CELLS/uL
- BASOPHIL [3]: 0%
- EOSINOPHIL [3]: 0.33%
- ERYTHROCYTE COUNT [3]: 5.25 x10E6/uL
- HEMATOCRIT [3]: 32.9%
- HEMOGLOBIN [3]: 13.03 G/DL
- LEUKOCYTE COUNT [3]: 7.17 x10E3/uL
- LYMPHOCYTE [3]: 91.67%
- MEAN CORPUSCULAR HEMOGLOBIN [3]: 24.87 pg
- MEAN CORPUSCULAR HEMOGLOBIN CONCENTRATION [3]: 39.6 G/DL
- MEAN CORPUSCULAR VOLUME [3]: 62.8 fL
- MONOCYTE [3]: 1%
- NEUTROPHIL [3]: 7%
- NUCLEATED RED BLOOD CELLS [3]: 0 /100WBC
- PLATELET COUNT [3]: 851.33 x10E3/uL
- ALANINE AMINOTRANSFERASE [3]: 92 u/L
- ALBUMIN [3]: 3.97 G/DL
- ALKALINE PHOSPHATASE [3]: 441.67 u/L
- ASPARTATE AMINOTRANSFERASE [3]: 111 u/L
- BLOOD UREA NITROGEN [3]: 12.33 mg/dL
- CARBON DIOXIDE [3]: 27.67 mmol/L
- CHLORIDE [3]: 95.5 MEQ/L
- CHOLESTEROL [3]: 77.67 mg/dL
- CREATINE PHOSPHOKINASE [3]: 476.67 u/L
- CREATININE [3]: 0.33 mg/dL
- GLUCOSE [3]: 152 mg/dL
- LACTATE DEHYDROGENASE [3]: 156.33 u/L
- LIPASE [3]: 13.67 u/L
- PHOSPHORUS [3]: 9.97 mg/dL
- POTASSIUM [3]: 5.27 MEQ/L
- SODIUM [3]: 138.85 MEQ/L
- TOTAL BILIRUBIN [3]: 0.17 mg/dL
- TOTAL PROTEIN [3]: 5.23 G/DL
- URIC ACID [3]: 0.7 mg/dL
- ABSOLUTE BASOPHIL [4]: 0 CELLS/uL
- ABSOLUTE EOSINOPHIL [4]: 0 CELLS/uL
- ABSOLUTE LYMPHOCYTE [4]: 8137.67 CELLS/uL
- ABSOLUTE MONOCYTE [4]: 25 CELLS/uL
- ABSOLUTE SEGMENTED NEUTROPHIL [4]: 504 CELLS/uL
- BASOPHIL [4]: 0%
- EOSINOPHIL [4]: 0%
- ERYTHROCYTE COUNT [4]: 6.06 x10E6/uL
- HEMATOCRIT [4]: 36.17%
- HEMOGLOBIN [4]: 13.93 G/DL
- LEUKOCYTE COUNT [4]: 8.67 x10E3/uL
- LYMPHOCYTE [4]: 94%
- MEAN CORPUSCULAR HEMOGLOBIN [4]: 23.03 pg
- MEAN CORPUSCULAR HEMOGLOBIN CONCENTRATION [4]: 38.53 G/DL
- MEAN CORPUSCULAR VOLUME [4]: 59.7 fL
- MONOCYTE [4]: 0.33%
- NEUTROPHIL [4]: 5.67%
- NUCLEATED RED BLOOD CELLS [4]: 0 /100WBC
- PLATELET COUNT [4]: 1066.67 x10E3/uL
- ALANINE AMINOTRANSFERASE [4]: 57 u/L
- ALBUMIN [4]: 4.03 G/DL
- ALKALINE PHOSPHATASE [4]: 326.67 u/L
- ASPARTATE AMINOTRANSFERASE [4]: 78 u/L
- BLOOD UREA NITROGEN [4]: 13.33 mg/dL
- CARBON DIOXIDE [4]: 35.67 mmol/L
- CHLORIDE [4]: 99.33 MEQ/L
- CHOLESTEROL [4]: 75 mg/dL
- CREATINE PHOSPHOKINASE [4]: 234.33 u/L
- CREATININE [4]: 0.18 mg/dL
- GLUCOSE [4]: 140 mg/dL
- LACTATE DEHYDROGENASE [4]: 135.33 u/L
- LIPASE [4]: 9.67 u/L
- PHOSPHORUS [4]: 10.43 mg/dL
- POTASSIUM [4]: 5.86 MEQ/L
- SODIUM [4]: 143.57 MEQ/L
- TOTAL BILIRUBIN [4]: 0.23 mg/dL
- TOTAL PROTEIN [4]: 5.83 G/DL
- URIC ACID [4]: 0.67 mg/dL
